The text below walks through data of patent US9096494B2, “Arachidonic acid analogs and methods for analgesic treatment using same” (priority 2009, dated 2015).

For assay [1], the system named is mice. Put plainly: Writhing assay in mouse (bolus and continuous infusion). It counts as in vivo. Background: Writhing tests count abdominal constrictions after an irritant is injected.
Assay [2] deals with mice. Put plainly: Tail-flick assay in mouse. It counts as in vivo. The protocol:
The tail-flick assay is based on the time measured to reflex withdrawal of the tail in response to a radiant heat source. The maximum exposure time to the radiant heat source is set at 10 seconds. Prior to treatment, a baseline (BL) time measured to tail-flick withdrawal is determined after two exposures to the radiant source separated by a 30 min period. Control mice are intravenously treated with vehicle and test mice are intravenously treated with analgesic test compound. Data of tail-flick withdrawal of treated mice (TM) are calculated as maximum possible effect (MPE), where MPE=(TM−BL)/(10−BL). Tail-flick withdrawal is measured at 5 min, 15 min, 30 mm, and 1 hr. A total of 3-5 mice are used for each time point tested.
For orientation: Hot-plate and tail-flick tests time the reaction to a heat stimulus.

Assay [3] is described as follows: Intravenous analgesia: onset and duration of effect.
The nature of assay [4]: Analgesic potency comparison with natural EETs and AM404. The note with it: in vivo. From the text:
Chemically, it is close structural analog of a set of lipid mediators derived from arachidonic acid that the body uses to control pain.

As to `CC(=O)Nc1ccc(O)cc1` [acetaminophen, reference compound], the “dose dependence of the level of analgesia” value with mice [1] (mouse writhing assay) was “not dose dependent”.
On to `CN1CC[C@]23c4c5ccc(O)c4O[C@H]2[C@@H](O)C=C[C@H]3[C@H]1C5` [Morphine, morphine, reference compound], for which, in the assay on mice [2] (10 mg/kg intravenous bolus), the “time to maximal (full) analgesic response, tail-flick” value came to 15 min. Besides, in the assay with mice [2] (intravenous), the “dose needed in tail-flick assay relative to writhing assay for a moderate level of efficacy” value is listed as “roughly 100 ×”. In addition, in the assay on mice [1] (mouse, in vivo), the “continuous infusion dose producing roughly the same level of analgesia (roughly 50% MPE), writhing assay” value came out at 1 mg/kg/h and the “time over which analgesic levels are sustained by continuous infusion” value was found to be 24 h. The “dose achieving 100% MPE, writhing assay” value with mice [1] (mouse, in vivo, iv) was “approximately 0.5 mg/kg”. The “time to peak effect” value in assay [3] (animal tests) is 15 to 40 min. The “onset of analgesia after intravenous bolus injection or infusion” value in assay [3] (from the start of injection) is 20 min. The “duration of analgesic effect from bolus injection” value in assay [3] (intravenous bolus) was 35 to 40 min.
On to `CCCCCC1OC1C/C=C\C/C=C\C/C=C\CCCC(=O)O` (stereo not shown) [14,15-EET, 14,15-EET (epoxyeicosatrienoic acid), reference compound], for which, in assay [4], the “analgesic potency relative to natural EETs” value is reported as “most potent analgesic of the natural EETs”.
